In patent US11161912B2, “Heparanase-neutralizing monoclonal antibodies” (Technion Research & Development Foundation Limited, priority 2015, dated 2021):

Experiments:
[1] = test system: human lymphoma cell lines; assay: Subcutaneous human lymphoma xenografts, dose response and treatment of palpable tumors (cell lines only 'indicated'); format: in vivo
Method: (§1) Lymphoma cells were also inoculated subcutaneously at the right flank of 6-weeks-old NOD/SCID mice (human cell lines) or C57BL/6 mice (E1-4 mouse lymphoma cells) (n=7). Mice were treated with heparanase inhibitors (PG545; SST0001) or neutralizing antibodies and xenografts size was determined by externally measuring the tumors in 2 dimensions using a caliper. At the end of the experiment, mice were sacrificed; tumor xenografts were removed, weighed and fixed for histological and immunohistochemical analyses (Weissmann et al, 2016, Proc Natl Acad Sci USA 113:704-709). […]
(§2) A. Specimens of human follicular (FIG. 1A, left panel) and diffuse (FIG. 1A, right panel) B-cell lymphomas were subjected for immunostaining applying anti-heparanase antibody. […] Lysates of Raji cells and extracts of tumor xenografts produced by Raji cells were applied onto dishes coated with sulfate-labelled ECM and heparanase enzymatic activity was determined as described (Vlodaysky I, et al. 1999, Nature Med 5(7):793-802). […] Extracts of control (Con) and PG545-treated tumor xenografts produced by Raji cells were applied onto dishes coated with sulfate labelled ECM and heparanase activity was determined as above (lower panel).

Daudi lymphoma cells = assay: Subcutaneous Daudi lymphoma xenograft in NOD/SCID mice; format: in vivo, human; conditions: PG545 IP 20 mg/kg once weekly from one day after inoculation
Method: as §1, §2

[2] = test system: ESb mouse T-lymphoma cells; assay: ESb T-lymphoma spontaneous liver metastasis and survival; format: in vivo; conditions: PG545 20 mg/kg once a week
Method: (§3) Lymphoma cells were also inoculated subcutaneously at the right flank of 6-weeks-old NOD/SCID mice (human cell lines) or C57BL/6 mice (E1-4 mouse lymphoma cells) (n=7). Mice were treated with heparanase inhibitors (PG545; SST0001) or neutralizing antibodies and xenografts size was determined by externally measuring the tumors in 2 dimensions using a caliper. At the end of the experiment, mice were sacrificed; tumor xenografts were removed, weighed and fixed for histological and immunohistochemical analyses (Weissmann et al, 2016, Proc Natl Acad Sci USA 113:704-709). ESb mouse T-lymphoma cells (5×10^5) were similarly inoculated subcutaneously into SCID mice and spontaneous metastasis to the liver (Vlodaysky et al., 1983, Cancer Res 43:2704-2711) was examined after 3 weeks of treatment with PG545 or the neutralizing mAb, as described above. All animal experiments were approved by the Animal Care Committee of the Technion, Haifa, Israel.
FIG. 3A. HEK 293 cells were incubated with latent 65 kDa (upper panel) or GS3 constitutively active heparanase (1 μg/ml; third panel) and the indicated mAbs (10 μg/ml). The cell medium was aspirated at the time designated and cell lysates were subjected to immunoblotting applying anti-heparanase antibody (upper and third panels). […] Heparanase-transfected 293 cells were grown with control mouse IgM or mAb 9E8 for two days. Cells were then fixed with methanol and subjected to immunofluorescent staining applying anti heparanase antibody (second panel) or lysed and subjected to immunoblotting applying anti-heparanase antibody (fourth panel). Purified recombinant active heparanase (200 ng) was pre-incubated with control mouse IgM ( ? ), mAb 8A5 ( ? ), mAb 9E8 ( ? ), all at 2 μg/ml, for 2 h in serum-free RPMI medium on ice. The mixture was then applied onto ^35S-labeled ECM-coated dishes and heparanase activity was determined as described above (lower panel). FIG. 3B, C. […] Quantification of the extent of CD45 staining is shown graphically in the lower panel. […]

Ramos lymphoma cells = assay: Subcutaneous Ramos lymphoma xenograft in NOD/SCID mice; format: in vivo, human; conditions: PG545 IP 20 mg/kg once weekly from one day after inoculation
Method: as §1, §2

Raji-luciferase cells = assay: Raji-luciferase lymphoma, tail vein inoculation, bone marrow growth by IVIS imaging; format: in vivo, human; conditions: PG545 20 mg/kg once a week
Method: Tumorigenicity. Luciferase-labelled CAG myeloma (5×10^6) or Raji lymphoma (1×10^6) cells were injected into the tail vein of NOD/SCID mice (n=5). Mice were treated with PG545 (20 mg/kg, once weekly), mAb 9E8 (600 μg/mouse) every other day starting one day following cell inoculation and tumor growth was examined by IVIS imaging. At termination, mice were sacrificed, the backbones were excised, fixed in formalin and following de-calcification with 10% EDTA solution were embedded in paraffin and subjected to histological and immunohistochemical analyses essentially as described (Weissmann et al, 2016, Proc Natl Acad Sci USA 113:704-709). Dose of 25-30 mg/kg (i.e., 500-600 μg mAb/mouse) is typical in cancer restraining experiments (Van Looy T, et al. 2015, Transl Oncol 8(2):112-118).
IVIS imaging. Bioluminescent imaging of the luciferase-expressing tumors was performed with a highly sensitive, cooled charge coupled device (CCD) camera mounted in a light-tight specimen box (IVIS; Xenogen Corp., Waltham, Mass.). Briefly, mice were injected intraperitoneally with D-luciferin substrate at 150 mg/kg, anesthetized and placed onto a stage inside the light-tight camera box, with continuous exposure to isoflurane (EZAnesthesia, Palmer, Pa.). Light emitted from the bioluminescent cells was detected by the IVIS camera system with images quantified for tumor burden using a log-scale color range set at 5×10^4 to 1×10^7 and measurement of total photon counts per second (PPS) using Living Image software (Xenogen) (Weissmann et al, 2016, Proc Natl Acad Sci USA 113:704-709).
FIG. 4A. Raji-luciferase cells (1×10^6) were injected into the tail vein of NOD/SCID mice (n=5). Mice were treated with PG545 (20 mg/kg once a week) starting one day after cell inoculation and IVIS imaging was applied to quantify tumor load. […] NOD/SCID mice (n=5) were inoculated (iv) with Raji-luciferase cells and mice were treated with mAb 9E8 (600 μg/mouse every other day) (FIG. 4C) and tumor growth was evaluated by IVIS imaging (left panels). Quantification of luciferase signals is shown graphically in the right lower panel.

[3] = test system: E1-4 mouse lymphoma cells; assay: Subcutaneous E1-4 mouse lymphoma tumors; format: in vivo; conditions: E1-4 cells lacking heparanase activity
Method: as §3

OCI-LY-19 lymphoma cells = assay: Subcutaneous OCI-LY-19 lymphoma xenograft in NOD/SCID mice; format: in vivo, human; conditions: OCI-LY-19, PG545 IP 20 mg/kg once weekly from one day after inoculation
Method: as §1, §2

SU-DHL-6 lymphoma cells = assay: Subcutaneous SU-DHL-6 lymphoma xenograft in mice; format: in vivo, human; conditions: SU-DHL-6, PG545 IP 20 mg/kg once weekly from one day after inoculation
Method: The indicated lymphoma cells (5×10^6) were implanted subcutaneously in NOD/SCID mice (n=7) and mice were administered with PG545 (IP, 20 mg/kg, once weekly, starting one day after cell inoculation), or control vehicle (PBS; Con). At termination, tumors were removed, weighted and embedded in paraffin for histological and immunohistochemical analyses. Mice were similarly inoculated with the indicated lymphoma cells and were treated with the indicated concentration of PG545 (mg/kg once a week; FIG. 1C) or were treated with PG545 (20 mg/kg once a week) once the tumors became palpable (FIG. 1D). Shown are average (±SE) tumor weight (gr.).

Raji lymphoma cells = assay: Subcutaneous Raji lymphoma xenograft in NOD/SCID mice; format: in vivo, human
Method: as §1, §2

[4] = prior art; cited from earlier work
heparanase = molecular target: T1, heparanase (Homo sapiens, UniProt Q9Y251); conditions: prior art; cited from earlier work
T1 sequence (Q9Y251 36-543): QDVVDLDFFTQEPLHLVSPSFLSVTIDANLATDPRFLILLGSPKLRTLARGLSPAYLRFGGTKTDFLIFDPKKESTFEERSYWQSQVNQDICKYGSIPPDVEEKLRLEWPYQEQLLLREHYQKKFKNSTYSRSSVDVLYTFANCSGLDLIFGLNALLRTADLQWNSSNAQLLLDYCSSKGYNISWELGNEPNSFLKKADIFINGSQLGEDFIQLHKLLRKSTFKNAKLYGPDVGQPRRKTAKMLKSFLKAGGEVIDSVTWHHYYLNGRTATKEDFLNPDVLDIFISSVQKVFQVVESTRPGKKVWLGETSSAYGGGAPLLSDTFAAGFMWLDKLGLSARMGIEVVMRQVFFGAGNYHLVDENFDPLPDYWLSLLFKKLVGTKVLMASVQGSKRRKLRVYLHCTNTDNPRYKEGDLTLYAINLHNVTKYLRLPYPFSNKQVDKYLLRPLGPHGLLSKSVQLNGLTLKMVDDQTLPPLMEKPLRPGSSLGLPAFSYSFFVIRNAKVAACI

For CC(C)CCC[C@@H](C)[C@H]1CC[C@H]2[C@@H]3CC[C@H]4C[C@@H](O[C@@H]5O[C@H](COS(=O)(=O)O)[C@@H](O[C@H]6O[C@H](COS(=O)(=O)O)[C@@H](O[C@H]7O[C@H](COS(=O)(=O)O)[C@@H](O[C@H]8O[C@H](COS(=O)(=O)O)[C@@H](OS(=O)(=O)O)[C@H](OS(=O)(=O)O)[C@H]8OS(=O)(=O)O)[C@H](OS(=O)(=O)O)[C@H]7OS(=O)(=O)O)[C@H](OS(=O)(=O)O)[C@H]6OS(=O)(=O)O)[C@H](OS(=O)(=O)O)[C@H]5OS(=O)(=O)O)CC[C@]4(C)[C@H]3CC[C@]12C [PG545], which “inhibition of tumor xenograft growth when treated once lesions became palpable” value ([1]; PG545 20 mg/kg once a week (FIG. 1D)) is on record?
Its value is “significant inhibition”.

What about the “dose dependence of xenograft growth attenuation” value ([1]; indicated concentrations mg/kg once a week (FIG. 1C)) of the same molecule?
The value was “dose-dependent manner”.

And the “growth of tumor xenografts (tumor weight)” value (“growth … (tumor weight)” below) (Daudi lymphoma cells)?
The value was “markedly attenuated”.

What about the survival of mice ([2]; ESb s.c. in NOD/SCID mice) of the same molecule?
The survival of mice was “prolonged”.

And the liver metastasis ([2]; ESb)?
Its liver metastasis is “reduced liver metastasis”.

And the “growth … (tumor weight)” value (Ramos lymphoma cells)?
The value was “markedly attenuated”.

And the “blood vessel density (CD31) in bone marrow” value (Raji-luciferase cells)?
The value was “decreased blood vessel density”.

And the “expansion of Raji-luciferase cells in the bone marrow” value (Raji-luciferase cells; IVIS)?
The value was “markedly reduced”.

What about the “growth of tumor xenografts” value [3] of the same molecule?
Its value is “not inhibited”.

What about the “growth … (tumor weight)” value (OCI-LY-19 lymphoma cells) of the same molecule?
The value was “markedly attenuated”.

And the “growth … (tumor weight)” value (SU-DHL-6 lymphoma cells)?
The value was “markedly attenuated”.

What about the “growth … (tumor weight)” value (Raji lymphoma cells; Raji, PG545 IP 20 mg/kg once weekly from one day after inoculation) of the same molecule?
Its value is “markedly attenuated”.

What about the “heparanase activity in tumor xenograft extracts” value (Raji lymphoma cells; extracts of Raji xenografts on sulfate labelled ECM) of the same molecule?
The value was “inhibits heparanase activity”.

Which “interaction with heparin and HS” value [4] does the source give for KKFKNSTYSRSSVD [KKDC] here?
Its value is “high affinity”.

What about the “inhibition of heparanase activity” value (heparanase) of the same molecule?
Its value is “inhibits heparanase enzymatic activity”.
